Patent publication US12384821B2, “Antimicrobial peptides and compositions, methods, articles and kits relating thereto” (George Mason University, priority 2020, dated 2025)
Where two headings read alike, the source gives them in different places. Where no end group is shown, it is not given here.

Experiments:
[1] = tested on: carbapenem-resistant K. pneumoniae strain (ATCC BAA-1705); format: cell-based, Klebsiella pneumoniae; details: for Antibacterial activity against CRKP (in words): CA-MHB, high salt test conditions; for MIC (μM) / MIC (μg/mL): ATCC BAA-1705
Procedure: Klebsiella pneumoniae ATCC BAA-1705 was purchased from the American Type Culture Collection (Manassas, VA) and grown in Cation-Adjusted Mueller Hinton Broth. Bacteria were aliquoted and frozen at −80° C. with 20% glycerol and enumerated via serial dilution and plating prior to experimentation.
The minimum inhibitory concentration (MIC) of the peptides was determined according to Clinical & Laboratory Standards Institute (CLSJ) guidelines. Bacteria were grown overnight on Cation-adjusted Mueller Hinton Agar (BD 211438, CAMHA) at 37° C. Assays were performed in Cation-adjusted Mueller Hinton Broth (BD 212322, CAMHB) in polypropylene 96 well plates (Corning 3879). Each experiment was performed with three replicates at least three times.

CRKP infected waxworms = assay: Waxworm infection model (CRKP infected G. mellonella); format: in vivo, Galleria mellonella
Procedure: FIG. 5 is a graph showing waxworm survival curves. Waxworms were injected with 10 μL containing 5×10^5 CFU in their rear left proleg. The waxworms were allowed to recover for 30 minutes at 37° C. They were injected with 10 μL containing the various treatments. They were kept at 37° C. and scored for survival every 24 hours. Each group contained 10 waxworms.
Galleria mellonella larvae were obtained from Vanderhorst Wholesale (Saint Marys, OH, USA). 10 larvae weighing between 250 and 300 mg were randomly assigned to each group. Waxworms were injected with 10 μL containing […] suspended in DPBS in their rear left proleg. The waxworms were then allowed to recover for 30 minutes at 37° C. They were then injected with 10 μL DPBS containing the various treatments into their rear right proleg. They were then kept at 37° C. and scored for survival every 24 hours.
(§1) We tested these antimicrobial peptides in the waxworm, G. mellonella.

[2] = tested on: K. pneumoniae strain ATCC BAA-1705; assay: DiSC3(5) membrane depolarization assay; format: cell-based, Klebsiella pneumoniae; details: PBS, 100, 10 and 1 μg/ml, 20 min
Procedure: FIGS. 2A-2B are graphs showing (A) membrane disruption as measured by ethidium bromide uptake against K. pneumoniae strain ATCC BAA-1705 in PBS at 50 μg/ml. Δ RFU shown is after 20 min incubation, done twice in triplicate. A one-way ANOVA with multiple comparisons was performed to determine statistical significance (* p<0.05; ** p<0.01; *** p<0.001); and (B) membrane depolarization Membrane depolarization was measures using 3,3′-dipropylthiadicarbocyanine iodide (DiSC3(5)) against K. pneumoniae strain ATCC BAA-1705 in PBS at 100, 10 and 1 μg/ml. Δ RFU shown is after 20 min incubation, done twice in triplicate. DRGN-6 refers to SEQ ID NO:6, DRGN-7 refers to SEQ ID NO:6 with N-terminus acetylated, DRGN-8 refers to SEQ ID NO:7, NACATH refers to SEQ ID NO:9.
Membrane depolarization was measured using DiSC3(5) (3,3′-dipropylthiadicarbocyanine iodide) as previously described with some modifications. Stocks of enumerated frozen Klebsiella pneumonia ATCC BAA-1705 were pelleted and washed twice in phosphate buffered saline (PBS) and then resuspended to 4×10^7 CFU/ml in PBS containing 50 μg/ml DiSC3(5). […] The plate was incubated in a fluorescence spectrophotometer (Tecan Infinite 200) and monitored until fluorescence stopped decreasing. […] Readings were taken at 20 minutes after addition of peptide (excitation=635 nm; emission=670 nm). […]

[3] = Circular dichroism spectroscopy, percent alpha-helicity; format: physicochemical; details: 100 μg/mL peptide
Procedure: Circular dichroism (CD) analysis of the peptides was performed using a Jasco J-1500 spectropolarimeter. 100 μg/mL of peptide was used in each experiment. Samples were allowed to equilibrate for 5 min prior to data collection at 25° C. in a 1 mm path length cuvette. Spectra were collected from 190 to 260 nm with at 20 nm/min, a data integration time of 4 seconds and a 1 nm bandwidth. Data shown represents the average of four spectra. The peptides were analyzed in 10 mM sodium phosphate buffer (6.12 mM sodium monohydrogen phosphate heptahydrate; 3.92 mM monosodium phosphate anhydrous; pH 7.4), 50% (v/v) trifluoroethanol (TFE) in phosphate buffer, or 60 mM sodium dodecyl sulfate (SDS) in phosphate buffer. Percent contribution to secondary structure was measured using methods described in Raussens, V. et al. (Analytical Biochemistry, 319(1):114-21 (2003)).
The secondary structures of many CAMPs are disordered in the absence of anionic membranes or micelles, but adopt more defined secondary structures in their presence. To detect and measure any changes that the DRGN peptides may undergo based on environment, we studied their structural properties in 10 mM phosphate buffer as a negative control, 60 mM SDS in 10 mM phosphate buffer and 50% 2,2,2-Trifluoroethanol (TFE) in 10 mM phosphate buffer. Phosphate buffer without SDS or TFE provided an environment for studying the conformational properties of the peptides structure in the absence a micelle or membrane. Sodium dodecyl sulfate is an anionic surfactant that can form micelles in aqueous buffers mimicking bacterial membranes and simulating the effects an anionic membrane can have on the conformations of antimicrobial peptides. Addition of trifluoroethanol to aqueous buffer promotes increased structure, usually helicity, in peptides with suitable sequences.

G. mellonella = tested on: G. mellonella; parameters: species or system Galleria mellonella; details: in vivo
From the text: as §1

Compound: CC[C@H](C)[C@H](NC(=O)[C@H](CCCCN)NC(=O)[C@H](CCC(=O)O)NC(=O)[C@H](CCCCN)NC(=O)[C@H](CO)NC(=O)[C@H](CCCCN)NC(=O)[C@H](CCCNC(=N)N)NC(=O)[C@H](Cc1ccccc1)NC(=O)[C@H](Cc1ccccc1)NC(=O)[C@H](CC(=O)O)NC(=O)CNC(=O)[C@H](CC(C)C)NC(=O)[C@@H](N)CC(C)C)C(=O)NCC(=O)N[C@@H](CCCCN)C(=O)N[C@@H](CCC(=O)O)C(=O)N[C@@H](Cc1ccccc1)C(=O)N[C@@H](CCCCN)C(=O)N[C@@H](CCCNC(=N)N)C(=O)N[C@H](C(=O)N[C@H](C(=O)N[C@@H](CCC(N)=O)C(=O)N[C@@H](CCCNC(=N)N)C(=O)N[C@H](C(=O)N[C@@H](CCCCN)C(=O)N[C@@H](CC(=O)O)C(=O)N[C@@H](Cc1ccccc1)C(=O)N[C@@H](CC(C)C)C(=O)N[C@@H](CCCNC(=N)N)C(=O)N[C@@H](CC(N)=O)C(=O)N[C@@H](CC(C)C)C(=O)N[C@H](C(=O)N1CCC[C@H]1C(=O)N[C@@H](CCCNC(=N)N)C(=O)N[C@H](C(=O)N[C@@H](CCC(=O)O)C(=O)N[C@@H](CO)C(=O)O)[C@@H](C)O)C(C)C)[C@@H](C)CC)C(C)C)[C@@H](C)CC [LL-37, reference compound]
- Antibacterial activity against CRKP (in words) [1]: very little antibacterial activity
- MIC (μM) ([1]; CLSI protocol in CA-MHB): >14 µM
- MIC (μg/mL) ([1]; CLSI protocol in CA-MHB): >64 µg/mL

Compound: CN(C)c1cc(NC(=O)CNC(C)(C)C)c(O)c2c1C[C@H]1C[C@H]3[C@H](N(C)C)C(O)=C(C(N)=O)C(=O)[C@@]3(O)C(O)=C1C2=O [tigecycline, reference compound]
- Survival of CRKP infected caterpillars (CRKP infected waxworms; control antibiotic injected): 100%

Compound: Ac-FRWRRFFRKAKRFLKRHAVSIAIGTVRLLRRFG-NH2 [DRGN-3]
- MIC (μM) ([1]; CLSI protocol in CA-MHB): 7.6 µM
- MIC (μg/mL) ([1]; CLSI protocol in CA-MHB): 32 µg/mL

Compound: Ac-FRWRRFFRKAKRFLKRHGVSIAIGTVRLLRRFG-NH2 [DRGN-5]
- MIC (μM) ([1]; CLSI protocol in CA-MHB): 7.7 µM
- MIC (μg/mL) ([1]; CLSI protocol in CA-MHB): 32 µg/mL

Compound: Colistin [reference compound]
- MIC (μM) ([1]; CLSI protocol in CA-MHB): 3.46 µM
- MIC (μg/mL) ([1]; CLSI protocol in CA-MHB): 4 µg/mL

Compound: FRWRRFFRKAKRFLKRHGVSIAIGTVRLLRRFG [VK-CATH4.1]
- MIC (μM) ([1]; CLSI protocol in CA-MHB): 7.7 µM
- MIC (μg/mL) ([1]; CLSI protocol in CA-MHB): 32 µg/mL

Compound: H-FRWRRFFRKAKRFLKRHAVSIAIGTVRLLRRFG-OH [DRGN-2]
- MIC (μM) ([1]; CLSI protocol in CA-MHB): 7.7 µM
- MIC (μg/mL) ([1]; CLSI protocol in CA-MHB): 32 µg/mL

Compound: H-RRWRRFFQKAKRLLRRFG-NH2 [DRGN-7]
- Survival benefit in CRKP infected waxworms (CRKP infected waxworms; single injection 30 min after infection): no survival benefit was observed
- Membrane depolarization, DiSC3(5) [2]: significant depolarization at all concentrations tested
- MIC (μM) [1]: 1.6 µM
- MIC (μg/mL) [1]: 4 µg/mL
- Change of MIC compared to DRGN-6 ([1]; increase = decreased effectiveness): no effect on MIC
- Percent alpha-helicity, 10 mM phosphate buffer ([3]; 10 mM phosphate buffer): 3.0%
- Percent alpha-helicity, SDS ([3]; 60 mM SDS in 10 mM phosphate buffer): 77.0%
- Percent alpha-helicity, TFE ([3]; 50% TFE in 10 mM phosphate buffer): 72.6%
- Toxicity of peptide alone in waxworm (G. mellonella): none of the peptides DRGN-6, -7 and -8 alone caused toxicity

Compound: RRWRRFFQKAKRFVKRHGVSIAVGAYRIIG [VK-CATH4.2]
- MIC (μM) [1]: 8.7 µM
- MIC (μg/mL) ([1]; CLSI protocol in CA-MHB): 32 µg/mL

Compound: RRWRRFFQKAKRLLRRFG [DRGN-6]
- MIC (μM) [1]: 1.6 µM
- MIC (μg/mL) [1]: 4 µg/mL
- Toxicity of peptide alone in waxworm (G. mellonella): none of the peptides DRGN-6, -7 and -8 alone caused toxicity

Compound: RRWRRFFRKAKRIIG-NH2 [DRGN-11]
- MIC (μM) [1]: >31 µM
- MIC (μg/mL) [1]: >64 µg/mL
- Antibacterial activity against CRKP (in words) [1]: virtually inactive

Compound: RRWRRFFRKAKRIIG-OH [DRGN-10]
- MIC (μM) [1]: >31 µM
- MIC (μg/mL) [1]: >64 µg/mL
- Antibacterial activity against CRKP (in words) [1]: virtually inactive

Compound: RRWRRFFRKAKRLLRRFG [DRGN-8]
- MIC (μM) [1]: 3.2 µM
- MIC (μg/mL) [1]: 8 µg/mL
- Toxicity of peptide alone in waxworm (G. mellonella): none of the peptides DRGN-6, -7 and -8 alone caused toxicity

Compound: RRWRRFFRKAKRLLRRFG-NH2 [DRGN-9]
- MIC (μM) [1]: 6.4 µM
- MIC (μg/mL) [1]: 16 µg/mL
- Increase in MIC compared to unmodified counterpart DRGN-8 ([1]; C-terminal amidation, decreased effectiveness): 2 fold
